Reference: paper PMC5218480 (PLoS ONE, 2017)

System: MV-4-11 cells
Test: Gene expression microarray analysis (Affymetrix PrimeView) and GSEA
Format: cell-based, human
Parameters: RFU PODN (11730768_x_at) / Fold change /veh PODN (11730768_x_at) / RFU LINC00158 (11744669_a_at) / Fold change /veh LINC00158 (11744669_a_at) / RFU DUSP10 (11751237_a_at) / Fold change /veh DUSP10 (11751237_a_at) / RFU ID3 (11757404_x_at) / Fold change /veh ID3 (11757404_x_at) / RFU PLEKHG5 (11737974_s_at) / Fold change /veh PLEKHG5 (11737974_s_at) / RFU LRRC4B (11730491_at) / Fold change /veh LRRC4B (11730491_at) / RFU GIMAP4 (11747438_a_at) / Fold change /veh GIMAP4 (11747438_a_at) / RFU KRT8 (11758183_x_at) / Fold change /veh KRT8 (11758183_x_at) / RFU CNN1 (11734310_a_at) / Fold change /veh CNN1 (11734310_a_at) / RFU VPS37D (11726825_at) / Fold change /veh VPS37D (11726825_at) / RFU C10orf10 (11716522_x_at) / Fold change /veh C10orf10 (11716522_x_at) / RFU KIR2DL2 /// KIR2DL4 /// KIR2DL5A /// KIR2DL5B /// KIR2DS1 /// KIR2DS2 /// KIR2DS3 /// KIR2DS4 /// KIR3DL3 /// KIR3DL3 /// KIR3DS1 (11738374_at) / Fold change /veh KIR2DL2 /// KIR2DL4 /// KIR2DL5A /// KIR2DL5B /// KIR2DS1 /// KIR2DS2 /// KIR2DS3 /// KIR2DS4 /// KIR3DL3 /// KIR3DL3 /// KIR3DS1 (11738374_at) / RFU C1QL1 (11718748_at) / Fold change /veh C1QL1 (11718748_at) / RFU TMPRSS4 (11747572_a_at) / Fold change /veh TMPRSS4 (11747572_a_at) / RFU HAMP (11756126_x_at) / Fold change /veh HAMP (11756126_x_at) / RFU RNFT2 (11725882_a_at) / Fold change /veh RNFT2 (11725882_a_at) / RFU NR4A2 (11747474_a_at) / Fold change /veh NR4A2 (11747474_a_at) / RFU ABCC12 (11746883_a_at) / Fold change /veh ABCC12 (11746883_a_at) / RFU TMEM136 (11760407_x_at) / Fold change /veh TMEM136 (11760407_x_at) / RFU CLDN22 /// WWC2 (11732394_at) / Fold change /veh CLDN22 /// WWC2 (11732394_at) / RFU HLA-DPB1 (11760878_x_at) / Fold change /veh HLA-DPB1 (11760878_x_at) / RFU SPINT1 (11716480_a_at) / Fold change /veh SPINT1 (11716480_a_at) / RFU GAP43 (11754022_s_at) / Fold change /veh GAP43 (11754022_s_at) / RFU A4GNT (11735810_at) / Fold change /veh A4GNT (11735810_at) / RFU PRB3 (11715151_x_at) / Fold change /veh PRB3 (11715151_x_at) / RFU TUBB4B (11761932_at) / Fold change /veh TUBB4B (11761932_at) / RFU CAPN14 (11732068_a_at) / Fold change /veh CAPN14 (11732068_a_at) / RFU TMCC2 (11721928_a_at) / Fold change /veh TMCC2 (11721928_a_at) / RFU IRGQ (11745062_a_at) / Fold change /veh IRGQ (11745062_a_at) / RFU FAM174B (11720279_a_at) / Fold change /veh FAM174B (11720279_a_at) / RFU TMPRSS4 (11748680_a_at) / Fold change /veh TMPRSS4 (11748680_a_at) / RFU FAM212B (11763350_a_at) / Fold change /veh FAM212B (11763350_a_at) / RFU PLEKHG5 (11743358_a_at) / Fold change /veh PLEKHG5 (11743358_a_at) / RFU ZSCAN30 (11745921_a_at) / Fold change /veh ZSCAN30 (11745921_a_at) / RFU CMKLR1 (11741424_a_at) / Fold change /veh CMKLR1 (11741424_a_at) / RFU LOC101060620 /// MAPK8IP1 (11723275_at) / Fold change /veh LOC101060620 /// MAPK8IP1 (11723275_at) / RFU SPTSSB (11747773_x_at) / Fold change /veh SPTSSB (11747773_x_at) / RFU PRSS12 (11739890_at) / Fold change /veh PRSS12 (11739890_at) / RFU BIN1 (11741810_x_at) / Fold change /veh BIN1 (11741810_x_at) / RFU WNT11 (11732464_a_at) / Fold change /veh WNT11 (11732464_a_at) / RFU C10orf10 (11716521_a_at) / Fold change /veh C10orf10 (11716521_a_at) / RFU C5orf56 (11738089_at) / Fold change /veh C5orf56 (11738089_at) / RFU CYB561 (11721691_x_at) / Fold change /veh CYB561 (11721691_x_at) / RFU ANKRD19P (11752326_a_at) / Fold change /veh ANKRD19P (11752326_a_at) / RFU OR2T12 /// OR2T33 /// OR2T8 (11738714_s_at) / Fold change /veh OR2T12 /// OR2T33 /// OR2T8 (11738714_s_at) / RFU VCAN (11748164_a_at) / Fold change /veh VCAN (11748164_a_at) / RFU JSRP1 (11732532_at) / Fold change /veh JSRP1 (11732532_at) / RFU KRTAP10-11 (11738290_x_at) / Fold change /veh KRTAP10-11 (11738290_x_at) / RFU MYO3A (11730013_a_at) / Fold change /veh MYO3A (11730013_a_at) / RFU EBF3 (11725865_a_at) / Fold change /veh EBF3 (11725865_a_at) / RFU CAMK2N1 (11719241_x_at) / Fold change /veh CAMK2N1 (11719241_x_at) / RFU C5orf56 (11738088_a_at) / Fold change /veh C5orf56 (11738088_a_at) / RFU OLFML3 (11715873_a_at) / Fold change /veh OLFML3 (11715873_a_at) / RFU LOC100653217 /// NTM (11731650_a_at) / Fold change /veh LOC100653217 /// NTM (11731650_a_at) / RFU MAPK11 (11762145_a_at) / Fold change /veh MAPK11 (11762145_a_at) / RFU FIZ1 (11724087_x_at) / Fold change /veh FIZ1 (11724087_x_at) / RFU OASL (11726364_x_at) / Fold change /veh OASL (11726364_x_at) / RFU SOX15 (11748057_x_at) / Fold change /veh SOX15 (11748057_x_at) / RFU CD79A (11719716_a_at) / Fold change /veh CD79A (11719716_a_at) / RFU HIST1H1D (11736915_at) / Fold change /veh HIST1H1D (11736915_at) / RFU CASKIN2 (11723855_a_at) / Fold change /veh CASKIN2 (11723855_a_at) / RFU LOC730098 (11760151_x_at) / Fold change /veh LOC730098 (11760151_x_at) / RFU OR4N2 (11742367_at) / Fold change /veh OR4N2 (11742367_at) / RFU PRRT2 (11749266_a_at) / Fold change /veh PRRT2 (11749266_a_at) / RFU SNX32 (11753110_a_at) / Fold change /veh SNX32 (11753110_a_at) / RFU CDHR5 (11726645_a_at) / Fold change /veh CDHR5 (11726645_a_at) / RFU RCAN1 (11760418_a_at) / Fold change /veh RCAN1 (11760418_a_at) / RFU FAM167A (11723789_a_at) / Fold change /veh FAM167A (11723789_a_at) / RFU FAM26E (11764081_at) / Fold change /veh FAM26E (11764081_at) / RFU ISYNA1 (11749810_s_at) / Fold change /veh ISYNA1 (11749810_s_at) / RFU ACY1 (11761880_at) / Fold change /veh ACY1 (11761880_at) / RFU 11764098_at / Fold change /veh 11764098_at / RFU SAMD14 (11745864_x_at) / Fold change /veh SAMD14 (11745864_x_at) / RFU NPB (11741838_a_at) / Fold change /veh NPB (11741838_a_at) / RFU TMPRSS6 (11731388_a_at) / Fold change /veh TMPRSS6 (11731388_a_at) / RFU KRTAP10-2 (11738614_at) / Fold change /veh KRTAP10-2 (11738614_at) / RFU ARHGAP8 /// PRR5-ARHGAP8 (11727945_x_at) / Fold change /veh ARHGAP8 /// PRR5-ARHGAP8 (11727945_x_at) / RFU KRTAP5-7 /// NADSYN1 (11734609_at) / Fold change /veh KRTAP5-7 /// NADSYN1 (11734609_at) / RFU RASL12 (11751679_a_at) / Fold change /veh RASL12 (11751679_a_at) / RFU CDKN2B (11736163_a_at) / Fold change /veh CDKN2B (11736163_a_at) / RFU PRF1 (11729649_at) / Fold change /veh PRF1 (11729649_at) / RFU, ZNF638 /// ZNF638-IT1 / Fold change vs veh, ZNF638 /// ZNF638-IT1 / RFU, PANK3 / Fold change vs veh, PANK3 / RFU, SH3YL1 / Fold change vs veh, SH3YL1 / RFU, ZEB2 / Fold change vs veh, ZEB2 / RFU, NRIP1 / Fold change vs veh, NRIP1 / RFU, PTTG1IP / Fold change vs veh, PTTG1IP / RFU, CAPN2 / Fold change vs veh, CAPN2 / RFU, MED14 / Fold change vs veh, MED14 / RFU, SNORA58 / Fold change vs veh, SNORA58 / RFU, C1orf63 / Fold change vs veh, C1orf63 / RFU, LRRFIP1 / Fold change vs veh, LRRFIP1 / RFU, NDUFAF7 / Fold change vs veh, NDUFAF7 / RFU, SLC12A2 / Fold change vs veh, SLC12A2 / RFU, IBTK / Fold change vs veh, IBTK / RFU, ESF1 / Fold change vs veh, ESF1 / Fold change vs veh, TMEM50B / RFU, TAOK1 / Fold change vs veh, TAOK1 / RFU, ACBD3 / Fold change vs veh, ACBD3 / RFU, TMA16 / Fold change vs veh, TMA16 / RFU, RWDD3 / Fold change vs veh, RWDD3 / RFU, BCAT1 / Fold change vs veh, BCAT1 / RFU, EDEM3 / Fold change vs veh, EDEM3 / RFU, TMEM33 / Fold change vs veh, TMEM33 / RFU, WDR75 / Fold change vs veh, WDR75 / RFU, AHCTF1 / Fold change vs veh, AHCTF1 / RFU, TFRC / Fold change vs veh, TFRC / RFU, ZDHHC17 / Fold change vs veh, ZDHHC17 / RFU, NOM1 / Fold change vs veh, NOM1 / RFU, ARL8B / Fold change vs veh, ARL8B / RFU, ZBTB11 / Fold change vs veh, ZBTB11 / RFU, TAMM41 / Fold change vs veh, TAMM41 / RFU, KIAA1704 /// LOC100996395 / Fold change vs veh, KIAA1704 /// LOC100996395 / RFU, ING1 / Fold change vs veh, ING1 / RFU, TRMT61B / Fold change vs veh, TRMT61B / RFU, FUBP3 / Fold change vs veh, FUBP3 / RFU, TP53 / Fold change vs veh, TP53 / RFU, TNKS2 / Fold change vs veh, TNKS2 / RFU, ZFP14 / Fold change vs veh, ZFP14 / RFU, ACTR2 / Fold change vs veh, ACTR2 / RFU, PPP3R1 / Fold change vs veh, PPP3R1 / RFU, PIK3R1 / Fold change vs veh, PIK3R1 / RFU, HNRNPA1 / Fold change vs veh, HNRNPA1 / RFU, RNF170 / Fold change vs veh, RNF170 / RFU, ZNF28 / Fold change vs veh, ZNF28 / RFU, RNGTT / Fold change vs veh, RNGTT / RFU, OGT / Fold change vs veh, OGT / RFU, BRD1 / Fold change vs veh, BRD1 / RFU, MARS / Fold change vs veh, MARS / RFU, ZNF655 / Fold change vs veh, ZNF655 / RFU, FAHD1 / Fold change vs veh, FAHD1 / RFU, BDP1 / Fold change vs veh, BDP1 / RFU, LRRCC1 / Fold change vs veh, LRRCC1 / RFU, ARID1A / Fold change vs veh, ARID1A / RFU, ZNF146 / Fold change vs veh, ZNF146 / RFU, ZNF330 / Fold change vs veh, ZNF330 / RFU, GPN3 / Fold change vs veh, GPN3 / RFU, C9orf123 / Fold change vs veh, C9orf123 / RFU, N4BP2L2 / Fold change vs veh, N4BP2L2 / RFU, ARFIP1 / Fold change vs veh, ARFIP1 / RFU, FAM179B / Fold change vs veh, FAM179B / RFU, BCL10 / Fold change vs veh, BCL10 / RFU, UHRF1BP1L / Fold change vs veh, UHRF1BP1L / RFU, BET1 / Fold change vs veh, BET1 / RFU, CNOT2 / Fold change vs veh, CNOT2 / RFU, ZNF268 / Fold change vs veh, ZNF268 / Fold change vs veh, ZNF507 / RFU, DGCR2 / Fold change vs veh, DGCR2 / RFU, WDSUB1 / Fold change vs veh, WDSUB1 / Fold change vs veh, HSP90B1 /// MIR3652 / RFU, ADSS / Fold change vs veh, ADSS / RFU, GK / Fold change vs veh, GK / RFU, ZNF148 / Fold change vs veh, ZNF148 / RFU, TAF9 / Fold change vs veh, TAF9 / RFU, SLC1A5 / Fold change vs veh, SLC1A5 / RFU, SLMO2 / Fold change vs veh, SLMO2 / RFU, ABCC4 / Fold change vs veh, ABCC4 / RFU, LOC101060439 /// RAP1B / Fold change vs veh, LOC101060439 /// RAP1B / RFU, RFX7 / Fold change vs veh, RFX7 / RFU, GTPBP10 / Fold change vs veh, GTPBP10 / RFU, CNEP1R1 / Fold change vs veh, CNEP1R1 / RFU, BIVM-ERCC5 /// ERCC5 / Fold change vs veh, BIVM-ERCC5 /// ERCC5 / RFU, ILF3 / Fold change vs veh, ILF3 / RFU 11762660_at / Fold change /veh 11762660_at / RFU VCAN (11757783_s_at) / Fold change /veh VCAN (11757783_s_at) / RFU DDX43 (11728927_at) / Fold change /veh DDX43 (11728927_at) / RFU KRT8 (11758188_x_at) / Fold change /veh KRT8 (11758188_x_at) / RFU NKD1 (11759106_at) / Fold change /veh NKD1 (11759106_at) / RFU SRD5A1 (11742802_a_at) / Fold change /veh SRD5A1 (11742802_a_at) / RFU TPSAB1 /// TPSB2 (11721975_s_at) / Fold change /veh TPSAB1 /// TPSB2 (11721975_s_at) / RFU GSTM3 (11746129_a_at) / Fold change /veh GSTM3 (11746129_a_at) / RFU IL23R (11737362_x_at) / Fold change /veh IL23R (11737362_x_at) / RFU TMEM51 (11727254_a_at) / Fold change /veh TMEM51 (11727254_a_at) / RFU PIWIL2 (11732686_x_at) / Fold change /veh PIWIL2 (11732686_x_at) / RFU ORM1 (11744905_x_at) / Fold change /veh ORM1 (11744905_x_at) / RFU CCDC152 (11743942_at) / Fold change /veh CCDC152 (11743942_at) / RFU ECM1 (11717891_a_at) / Fold change /veh ECM1 (11717891_a_at) / RFU IL23R (11748794_a_at) / Fold change /veh IL23R (11748794_a_at) / RFU TNFAIP8L3 (11732012_x_at) / Fold change /veh TNFAIP8L3 (11732012_x_at) / RFU MBOAT4 (11741988_at) / Fold change /veh MBOAT4 (11741988_at) / RFU 11764193_at / Fold change /veh 11764193_at / RFU TMEM53 (11763286_at) / Fold change /veh TMEM53 (11763286_at) / RFU MAGEB2 (11727129_at) / Fold change /veh MAGEB2 (11727129_at) / RFU TMEM200A (11744735_a_at) / Fold change /veh TMEM200A (11744735_a_at) / RFU CCDC152 (11751479_a_at) / Fold change /veh CCDC152 (11751479_a_at) / RFU FAM211A (11726209_a_at) / Fold change /veh FAM211A (11726209_a_at) / RFU RGS16 (11746705_a_at) / Fold change /veh RGS16 (11746705_a_at) / RFU VCAN (11755009_s_at) / Fold change /veh VCAN (11755009_s_at) / RFU RHOB (11743442_s_at) / Fold change /veh RHOB (11743442_s_at) / RFU RGS16 (11720943_a_at) / Fold change /veh RGS16 (11720943_a_at) / RFU RGS16 (11720944_at) / Fold change /veh RGS16 (11720944_at) / RFU, VPS4B / Fold change vs veh, VPS4B / RFU, CREB1 / Fold change vs veh, CREB1 / RFU, DNAJC13 / Fold change vs veh, DNAJC13 / RFU, GNAQ / Fold change vs veh, GNAQ / RFU, CDK5R1 / Fold change vs veh, CDK5R1 / RFU, ZRANB3 / Fold change vs veh, ZRANB3 / RFU, CUL4A / Fold change vs veh, CUL4A / RFU, CCNY / Fold change vs veh, CCNY / RFU, UFL1 / Fold change vs veh, UFL1 / RFU, COG3 / Fold change vs veh, COG3 / RFU, DIAPH2 / Fold change vs veh, DIAPH2 / RFU, SKA2 / Fold change vs veh, SKA2 / RFU, AFF3 / Fold change vs veh, AFF3 / RFU, LMF1 / Fold change vs veh, LMF1 / RFU, IPO11 / Fold change vs veh, IPO11 / RFU, DFFB / Fold change vs veh, DFFB / RFU, FOXP1 / Fold change vs veh, FOXP1 / RFU, CARD8 / Fold change vs veh, CARD8 / RFU, STRN3 / Fold change vs veh, STRN3 / RFU, ADK / Fold change vs veh, ADK / RFU, RASSF2 / Fold change vs veh, RASSF2 / RFU, WIPF1 / Fold change vs veh, WIPF1 / RFU, LARP1B / Fold change vs veh, LARP1B / RFU, RASA1 / Fold change vs veh, RASA1 / RFU, RB1 / Fold change vs veh, RB1 / RFU, PPFIA1 / Fold change vs veh, PPFIA1 / RFU, MAT2A / Fold change vs veh, MAT2A / RFU, CCT5 / Fold change vs veh, CCT5 / RFU, WDR92 / Fold change vs veh, WDR92 / RFU, CUX1 / Fold change vs veh, CUX1 / RFU, TTC7A / Fold change vs veh, TTC7A / RFU, TMEM135 / Fold change vs veh, TMEM135 / RFU, DEPTOR / Fold change vs veh, DEPTOR / RFU, CPM / Fold change vs veh, CPM / RFU, DNAJB6 / Fold change vs veh, DNAJB6 / RFU, CACNA2D3 / Fold change vs veh, CACNA2D3 / RFU, DTX4 / Fold change vs veh, DTX4 / RFU, TFCP2 / Fold change vs veh, TFCP2 / RFU, GMCL1 /// GMCL1P1 / Fold change vs veh, GMCL1 /// GMCL1P1 / RFU, AEBP2 / Fold change vs veh, AEBP2 / RFU, SNHG1 /// SNORD22 /// SNORD25 /// SNORD26 /// SNORD27 /// SNORD28 /// SNORD29 /// SNORD31 / Fold change vs veh, SNHG1 /// SNORD22 /// SNORD25 /// SNORD26 /// SNORD27 /// SNORD28 /// SNORD29 /// SNORD31 / Fold change (Aza/veh), C12orf56 (ProbeSet 11735607_a_at) / Fold change (ACY-1035/veh), C12orf56 (ProbeSet 11735607_a_at) / Fold change (Aza/veh), FGFR1OP (ProbeSet 11751329_s_at) / Fold change (ACY-1035/veh), FGFR1OP (ProbeSet 11751329_s_at) / Fold change (Aza/veh), VPS36 (ProbeSet 11739960_a_at) / Fold change (ACY-1035/veh), VPS36 (ProbeSet 11739960_a_at) / RFU SYPL1 (11715823_x_at) / Fold change /veh SYPL1 (11715823_x_at) / RFU IGFBP7 (11715501_s_at) / Fold change /veh IGFBP7 (11715501_s_at) / RFU REEP3 (11722064_at) / Fold change /veh REEP3 (11722064_at) / RFU IGLL1 (11728026_x_at) / Fold change /veh IGLL1 (11728026_x_at): dose or concentration left out as unconfirmed
Details: ProbeSet 11758397_s_at; LIST B

Nc1ccc(-c2cccs2)cc1NC(=O)c1ccc2c(c1)cc(C1CC1)n2CCN1CCOCC1 [ACY-1035]
RFU, RNF170: 143.47 RFU
